Data: patent publication US5478848A (priority 1994, dated 1995)
Like-named read-outs stand apart in the source and are kept apart here.

Experiments:
[1] = cited from earlier work
[2] = Inhibition of arthritis in the adjuvant-induced arthritis model in the Lewis rat; type: in vivo; details: for ED50: Rattus norvegicus, ip, 384 h; for Potency compared with indomethacin: i.p., adjuvant arthritis model
Source text: One similarity is the sensitivity to certain therapeutic treatments known to be active in humans. Also, therapeutic doses in humans are similar to therapeutic doses in the adjuvant arthritis model. Examples include NSAIDs, steroids, methotrexate, immunosuppressive drugs, such as cyclosporin, and cytotoxic drugs, such as cyclophosphamide and allopurinol. Jeurissen et. al., Arthritis and Rheumatism 34, 961-972 (1991); Yocum et. al., Annals of Internal Medicine 109, 863-869 (1988); Rau, et. al., Arthritis and Rheumatism 34, 1236-1244 (1991); Otterness and Bliven, supra; Ward, Am. J. Med. Medicine. pp. 3-9 (Jul. 13, 1984).
Lewis rats were given a 0.1 ml injection of adjuvant (1 mg/animal) into the base of the tail on day 0. Swelling of the feet and ankles was first noted on days 10-12. Maximal swelling was observed on days 16-20. The cell infiltrate of the chronic inflammatory responses is predominantly mononuclear (indicating the presence of cell-mediated immunity). Animals were observed daily, and ankle diameter was measured in millimeters on days 12 and 16 using a hand-held dial micrometer. The degree of swelling was assessed by calculating the mean difference between day 16 and day 0 ankle diameter. The results are expressed as the percent inhibition of the increase in ankle diameter on day 16. At this point the animals were sacrificed and tissues were taken for histologic evaluation.
Animals were administered test drugs, suspended in 5% polyethylene glycol and 0.5% Tween-80 in phosphate buffered saline (p.o. or i.p.) once each day from day 1 to day 16.

[3] = Inhibition of arthritis in the passive transfer model; type: in vivo, Lewis rat
Description: Another arthritis model often used is the passive transfer model. In the passive transfer model of adjuvant arthritis, spleen cells are harvested from animals 12-14 days after the animals have been injected with adjuvant, cultured 24 hours in vitro with the T-cell mitogen, concanavaLin A, and injected into naive rats. Within 14-20 days, arthritis develops in the paws. […] Otterness and Bliven, supra.
Nimodipine was also tested for its ability to inhibit arthritis in the passive-transfer model. Otterness and Bliven, supra.
Spleens were harvested from naive rats or from rats 9-12 days after sensitization with complete Freund's adjuvant. Single cell suspensions from spleen were prepared and cells were cultured for 24 hours with the T cell mitogen, concanavalin A. Spleen cells were harvested and injected, i.v., into naive animals. Ankle diameters were determined 14-18 days after injection of spleen cells from naive or sensitized animals into naive animals. Animals were administered nimodipine at 10 mg/kg/day, i.p., suspended in 5% polyethylene glycol and 0.5% Tween-80 in phosphate-buffered saline.

[4] = cited from earlier work; remark: listed apart in the source
[5] = system: L-type Ca2+ channels; details: fibroblasts, macrophage/monocyte-like cells, Kuppfer cells; cited from earlier work

CN(Cc1cnc2nc(N)nc(N)c2n1)c1ccc(C(=O)N[C@@H](CCC(=O)O)C(=O)O)cc1 [methotrexate]
Progressive dose-related hepatic changes ([1]; extended periods of treatment, correlates with ethanol ingestion): progressive dose-related hepatic changes
Hepatic effects in patients treated for rheumatoid arthritis ([1]; human, in vivo): Hepatic fibrosis and cirrhosis have been reported

COc1ccc2c(c1)c(CC(=O)O)c(C)n2C(=O)c1ccc(Cl)cc1 [indomethacin]
ED50 [2]: 3 ± 1 mg/kg
Patients experiencing untoward side effects ([1]; human, in vivo): 35-50%
Patients forced to discontinue use ([1]; human, in vivo): about 20%
Ulceration of the upper gastrointestinal tract / gastrointestinal bleeding ([1]; therapeutic doses used in rheumatoid arthritis): ulceration of the upper gastrointestinal tract leading to gastrointestinal bleeding is common

COC(=O)C1=C(C)NC(C)=C(C(=O)OC)C1c1ccccc1[N+](=O)[O-] [nifedipine]
ED50 [2]: 11 mg/kg

COCCOC(=O)C1=C(C)NC(C)=C(C(=O)OC(C)C)C1c1cccc([N+](=O)[O-])c1 (stereo not shown) [nimodipine]
ED50 [2]: 4 mg/kg
Potency compared with indomethacin [2]: comparable in potency to indomethacin
Inhibition of arthritis in the passive transfer model ([3]; 10 mg antagonist/kg body weight/day): completely inhibited arthritis
Increase in paw diameter ([3]; sensitized T cells, 10 mg/kg/day, i.p., 14-18 days after injection of spleen cells): 0.2 ± 0.05 mm
Gastrointestinal irritation ([4]; acute, sub-acute and chronic exposure, even at supra-therapeutic concentrations, NDA applications): have not revealed any gastrointestinal irritation
Gastrointestinal toxicity ([4]; expected therapeutic dose in rheumatoid arthritis, prolonged periods of treatment): no gastrointestinal toxicity has been observed

CC1=C(CC(=O)O)c2cc(F)ccc2/C1=C\c1ccc([S+](C)[O-])cc1 (stereo not shown) [sulindac]
Potency relative to indomethacin ([1]; human, in vivo): only half as potent as indomethacin
Toxic side effects ([1]; human, in vivo): has toxic side effects of its own

COc1ccc(CCN(C)CCCC(C#N)(c2ccc(OC)c(OC)c2)C(C)C)cc1OC (stereo not shown) [verapamil]
ED50 [2]: 10 mg/kg

COC(=O)C1=C(C)NC(C)=C(C(=O)OCC(C)C)C1c1ccccc1[N+](=O)[O-] (stereo not shown) [nisoldipine]
ED50 ([2]; i.p. dosage, once each day from day 1 to day 16, increase in ankle diameter on day 16, read-out: ED50): < 1 mg/kg
Potency compared with indomethacin [2]: comparable in potency to indomethacin

COC(=O)C1=C(C)NC(C)=C([N+](=O)[O-])C1c1ccccc1C(F)(F)F (stereo not shown) [Bay K 8644]
Entry of Ca2+ into non-excitable cells [5]: stimulated
